# Tests used:
# bedstraw = experiment: Test B pre/postemergence bedstraw; format: in vivo, Galium aparine
# Procedure, shortened: (§1)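 Herbicidal effect was estimated by eye on a ten-point control scale after plants spent twelve to sixteen days in a greenhouse following soil or foliar treatment. Foliar sprays targeted plants at one to four leaves; all doses were formulated in a non-phytotoxic solvent with surfactant.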
# blackgrass = experiment: Test B pre/postemergence blackgrass; format: in vivo, Alopecurus myosuroides
# Procedure, shortened: as §1
# surinam grass = experiment: Test B pre/postemergence surinam grass; format: in vivo, Brachiaria decumbens
# Procedure, shortened: as §1
# cocklebur = experiment: Test B pre/postemergence cocklebur; format: in vivo, Xanthium strumarium
# Procedure, shortened: as §1
# giant foxtail = experiment: Test B pre/postemergence giant foxtail; format: in vivo, Setaria faberii
# Procedure, shortened: as §1
# morningglory = experiment: Test B pre/postemergence morningglory; format: in vivo, Ipomoea hederacea
# Procedure, shortened: as §1
# pigweed = experiment: Test B pre/postemergence pigweed; format: in vivo, Amaranthus retroflexus
# Procedure, shortened: as §1
# rape = experiment: Test B pre/postemergence rape; format: in vivo, Brassica napus
# Procedure, shortened: as §1
# soybean = experiment: Test B pre/postemergence soybean; format: in vivo, Glycine max
# Procedure, shortened: as §1
# velvetleaf = experiment: Test B pre/postemergence velvetleaf; format: in vivo, Abutilon theophrasti
# Procedure, shortened: as §1
# wheat = experiment: Test B pre/postemergence wheat; format: in vivo, Triticum aestivum
# Procedure, shortened: as §1
# wild oat = experiment: Test B pre/postemergence wild oat; format: in vivo, Avena fatua
# Procedure, shortened: as §1
# purple nutsedge = experiment: Test B pre/postemergence purple nutsedge; format: in vivo, Cyperus rotundus
# Procedure, shortened: as §1
# smallflower flatsedge = experiment: Test B flood test smallflower flatsedge; format: in vivo, Cyperus difformis
# Procedure, shortened: (§2)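 Plants were grown to the 2-leaf stage before treatment with test chemical, then held in a greenhouse for twelve to sixteen days. Injury was visually rated against untreated controls on a 0–10 scale, where 0 is no effect and 10 is complete control.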
# duck salad = experiment: Test B flood test duck salad; format: in vivo, Heteranthera limosa
# Procedure, shortened: as §2
# bamyardgrass = experiment: Test B flood test barnyardgrass; format: in vivo, Echinochloa crus-galli
# Procedure, shortened: as §2
# [1] = Postemergence, Rate 125 g/ha, scale of 0 to 10 where 0 is no effect and 10 is complete control
# [2] = Preemergence, Rate 62 g/ha, scale of 0 to 10 where 0 is no effect and 10 is complete control
# [3] = Preemergence, Rate 125 g/ha, 0 is no effect, 10 is complete control
# [4] = Preemergence, Rate 250 g/ha, scale 0 to 10, 0 is no effect, 10 is complete control
# [5] = Preemergence, Rate 500 g/ha, scale 0 to 10 (0 no effect, 10 complete control)
# [6] = Rate 62 g/ha, Postemergence, scale of 0 to 10 where 0 is no effect and 10 is complete control
# [7] = Rate 250 g/ha, Postemergence, scale 0 to 10, 0 is no effect, 10 is complete control
# [8] = Rate 500 g/ha, Postemergence, scale 0 to 10
# [9] = Rate 1000 g/ha, Preemergence, scale 0 to 10 (0 no effect, 10 complete control)
# [10] = Rate 2000 g/ha, Preemergence, scale 0 to 10
# [11] = Postemergence, Rate 1000 g/ha, scale 0 to 10 (0 no effect, 10 complete control)
# [12] = Rate 2000 g/ha, Postemergence, scale 0 to 10
# [13] = Postemergence (flood test species), Rate 125 g/ha, scale of 0 to 10 where 0 is no effect and 10 is complete control
# [14] = Rate 62 g/ha, Postemergence section, flood test species, scale of 0 to 10 where 0 is no effect and 10 is complete control
# [15] = Rate 250 g/ha, Postemergence (flood test), scale 0 to 10, 0 is no effect, 10 is complete control
# [16] = Rate 250 g/ha, Pre-emergence, flood-test species, scale 0 to 10, 0 is no effect, 10 is complete control
# [17] = Rate 500 g/ha, listed under Postemergence (flood test species), scale 0 to 10
# [18] = Rate 2000 g/ha, Pre-emergence (as headed), scale 0 to 10
# [19] = Rate 500 g/ha, headed Pre-emergence (flood test species), scale 0 to 10 (0 no effect, 10 complete control)
# [20] = Rate 1000 g/ha, Pre-emergence (as headed), scale 0 to 10
smiles,measurement,setting,value
CC(C)N(C(=O)n1oc(=O)n(N(C)c2ccccc2)c1=O)c1ccc(F)cc1 [Compound 177],Bedstraw plant response rating,bedstraw; [1],0
same,Bedstraw plant response rating,bedstraw; [2],0
same,Bedstraw plant response rating (0 to 10 scale),bedstraw; [3],0
same,Bedstraw plant response rating,bedstraw; [4],9
same,Bedstraw plant response rating,bedstraw; [5],10
same,Bedstraw plant response rating,bedstraw; [6],0
same,"Plant response rating, Bedstraw",bedstraw; [7],5
same,Bedstraw plant response rating,bedstraw; [8],6
same,"Plant response rating, Bedstraw",bedstraw; [9],10
same,Bedstraw plant response rating,bedstraw; [10],10
same,Blackgrass plant response rating,blackgrass; [1],0
same,Blackgrass plant response rating,blackgrass; [11],3
same,Blackgrass plant response rating,blackgrass; [2],0
same,Blackgrass plant response rating (0 to 10 scale),blackgrass; [3],0
same,Blackgrass plant response rating,blackgrass; [4],6
same,Blackgrass plant response rating,blackgrass; [5],6
same,Blackgrass plant response rating,blackgrass; [6],0
same,"Plant response rating, Blackgrass",blackgrass; [7],0
same,Blackgrass plant response rating,blackgrass; [8],2
same,"Plant response rating, Blackgrass",blackgrass; [9],7
same,Blackgrass plant response rating,blackgrass; [12],6
same,Blackgrass plant response rating,blackgrass; [10],9
same,B. signalgrass plant response rating,surinam grass; [1],0
same,B. signalgrass plant response rating,surinam grass; [11],0
same,B. signalgrass plant response rating,surinam grass; [2],0
same,B. signalgrass plant response rating (0 to 10 scale),surinam grass; [3],0
same,B. signalgrass plant response rating,surinam grass; [4],0
same,B. signalgrass plant response rating,surinam grass; [5],0
same,B. signalgrass plant response rating,surinam grass; [6],0
same,"Plant response rating, B. signalgrass",surinam grass; [7],0
same,B. signalgrass plant response rating,"surinam grass; Rate 500 g/ha, Postemergence, scale 0 to 10, 0 no effect, 10 complete control",0
same,"Plant response rating, B. signalgrass",surinam grass; [9],5
same,B. signalgrass plant response rating,surinam grass; [12],0
same,B. signalgrass plant response rating,surinam grass; [10],9
same,Cocklebur plant response rating,cocklebur; [1],0
same,Cocklebur plant response rating,cocklebur; [11],0
same,Cocklebur plant response rating,cocklebur; [2],0
same,Cocklebur plant response rating (0 to 10 scale),cocklebur; [3],0
same,Cocklebur plant response rating,cocklebur; [4],0
same,Cocklebur plant response rating,cocklebur; [5],0
same,Cocklebur plant response rating,cocklebur; [6],0
same,"Plant response rating, Cocklebur",cocklebur; [7],0
same,Cocklebur plant response rating,cocklebur; [8],3
same,Cocklebur plant response rating,cocklebur; [12],0
same,Cocklebur plant response rating,cocklebur; [10],2
same,Giant foxtail plant response rating,giant foxtail; [1],0
same,Giant foxtail plant response rating,giant foxtail; [11],0
same,Giant foxtail plant response rating,giant foxtail; [2],3
same,Giant foxtail plant response rating (0 to 10 scale),giant foxtail; [3],3
same,Giant foxtail plant response rating,giant foxtail; [4],10
same,Giant foxtail plant response rating,giant foxtail; [5],10
same,Giant foxtail plant response rating,giant foxtail; [6],0
same,"Plant response rating, Giant foxtail",giant foxtail; [7],0
same,Giant foxtail plant response rating,giant foxtail; [8],0
same,"Plant response rating, Giant foxtail",giant foxtail; [9],10
same,Giant foxtail plant response rating,giant foxtail; [12],2
same,Giant foxtail plant response rating,giant foxtail; [10],10
same,Morningglory plant response rating,morningglory; [1],0
same,Morningglory plant response rating,morningglory; [11],1
same,Morningglory plant response rating,morningglory; [2],0
same,Morningglory plant response rating (0 to 10 scale),morningglory; [3],0
same,Morningglory plant response rating,morningglory; [4],0
same,Morningglory plant response rating,morningglory; [5],0
same,Morningglory plant response rating,morningglory; [6],0
same,"Plant response rating, Morningglory",morningglory; [7],2
same,Morningglory plant response rating,morningglory; [8],4
same,"Plant response rating, Morningglory",morningglory; [9],0
same,Morningglory plant response rating,morningglory; [12],1
same,Morningglory plant response rating,morningglory; [10],0
same,Redroot pigweed plant response rating,pigweed; [1],0
same,Redroot pigweed plant response rating,pigweed; [11],2
same,Redroot pigweed plant response rating,pigweed; [2],0
same,Redroot pigweed plant response rating (0 to 10 scale),pigweed; [3],0
same,Redroot pigweed plant response rating,pigweed; [4],0
same,Redroot pigweed plant response rating,pigweed; [5],0
same,Redroot pigweed plant response rating,pigweed; [6],0
same,"Plant response rating, Redroot pigweed",pigweed; [7],0
same,Redroot pigweed plant response rating,pigweed; [8],3
same,"Plant response rating, Redroot pigweed",pigweed; [9],0
same,Redroot pigweed plant response rating,pigweed; [12],3
same,Redroot pigweed plant response rating,pigweed; [10],0
same,Rape plant response rating,rape; [1],0
same,Rape plant response rating,rape; [11],0
same,Rape plant response rating,rape; [2],0
same,Rape plant response rating (0 to 10 scale),rape; [3],0
same,Rape plant response rating,rape; [4],0
same,Rape plant response rating,rape; [5],0
same,Rape plant response rating,rape; [6],0
same,"Plant response rating, Rape",rape; [7],0
same,Rape plant response rating,rape; [8],0
same,"Plant response rating, Rape",rape; [9],0
same,Rape plant response rating,rape; [12],3
same,Rape plant response rating,rape; [10],0
same,Soybean plant response rating,soybean; [1],1
same,Soybean plant response rating,soybean; [11],3
same,Soybean plant response rating,soybean; [2],0
same,Soybean plant response rating (0 to 10 scale),soybean; [3],0
same,Soybean plant response rating,soybean; [4],0
same,Soybean plant response rating,soybean; [5],0
same,Soybean plant response rating,soybean; [6],1
same,"Plant response rating, Soybean",soybean; [7],2
same,Soybean plant response rating,soybean; [8],4
same,"Plant response rating, Soybean",soybean; [9],0
same,Soybean plant response rating,soybean; [12],4
same,Soybean plant response rating,soybean; [10],0
same,Velvetleaf plant response rating,velvetleaf; [11],0
same,Velvetleaf plant response rating,velvetleaf; [2],0
same,Velvetleaf plant response rating (0 to 10 scale),velvetleaf; [3],0
same,Velvetleaf plant response rating,velvetleaf; [4],0
same,Velvetleaf plant response rating,velvetleaf; [5],0
same,"Plant response rating, Velvetleaf",velvetleaf; [7],0
same,Velvetleaf plant response rating,velvetleaf; [8],3
same,"Plant response rating, Velvetleaf",velvetleaf; [9],0
same,Velvetleaf plant response rating,velvetleaf; [12],4
same,Velvetleaf plant response rating,velvetleaf; [10],3
same,Wheat plant response rating,wheat; [11],3
same,Wheat plant response rating,wheat; [2],0
same,Wheat plant response rating (0 to 10 scale),wheat; [3],0
same,Wheat plant response rating,wheat; [4],0
same,Wheat plant response rating,wheat; [5],0
same,"Plant response rating, Wheat",wheat; [7],0
same,Wheat plant response rating,wheat; [8],4
same,"Plant response rating, Wheat",wheat; [9],0
same,Wheat plant response rating,wheat; [12],3
same,Wheat plant response rating,wheat; [10],2
same,Wild oats plant response rating,wild oat; [11],2
same,Wild oats plant response rating,wild oat; [2],0
same,Wild oats plant response rating (0 to 10 scale),wild oat; [3],0
same,Wild oats plant response rating,wild oat; [4],0
same,Wild oats plant response rating,wild oat; [5],2
same,"Plant response rating, Wild oats",wild oat; [7],0
same,Wild oats plant response rating,wild oat; [8],0
same,"Plant response rating, Wild oats",wild oat; [9],10
same,Wild oats plant response rating,wild oat; [12],2
same,Wild oats plant response rating,wild oat; [10],10
same,Nutsedge plant response rating,purple nutsedge; [1],0
same,Nutsedge plant response rating,purple nutsedge; [11],0
same,Nutsedge plant response rating,purple nutsedge; [2],0
same,Nutsedge plant response rating (0 to 10 scale),purple nutsedge; [3],0
same,Nutsedge plant response rating,purple nutsedge; [4],0
same,Nutsedge plant response rating,purple nutsedge; [5],0
same,Nutsedge plant response rating,purple nutsedge; [6],0
same,"Plant response rating, Nutsedge",purple nutsedge; [7],0
same,Nutsedge plant response rating,purple nutsedge; [8],0
same,"Plant response rating, Nutsedge",purple nutsedge; [9],0
same,Nutsedge plant response rating,purple nutsedge; [12],0
same,Nutsedge plant response rating,purple nutsedge; [10],0
same,S. Flatsedge plant response rating,smallflower flatsedge; [13],0
same,S. Flatsedge plant response rating,"smallflower flatsedge; Pre-emergence, Rate 1000 g/ha, scale 0 to 10 (0 no effect, 10 complete control)",0
same,S. Flatsedge plant response rating,smallflower flatsedge; [14],0
same,"Plant response rating, S. Flatsedge",smallflower flatsedge; [15],0
same,S. Flatsedge plant response rating,smallflower flatsedge; [16],0
same,S. Flatsedge plant response rating,smallflower flatsedge; [17],0
same,S. Flatsedge plant response rating,"smallflower flatsedge; Rate 500 g/ha, Pre-emergence, flood test species, scale 0 to 10 (0 no effect, 10 complete control)",0
same,S. Flatsedge plant response rating,smallflower flatsedge; [18],0
same,Ducksalad plant response rating,duck salad; [13],0
same,Ducksalad plant response rating,duck salad; [14],0
same,"Plant response rating, Ducksalad",duck salad; [15],2
same,Ducksalad plant response rating,duck salad; [16],0
same,"Plant response rating, Ducksalad",duck salad; [19],0
same,Ducksalad plant response rating,duck salad; [17],2
same,Ducksalad plant response rating,duck salad; [20],0
same,Ducksalad plant response rating,duck salad; [18],0
same,Barnyardgrass plant response rating,bamyardgrass; [13],0
same,Barnyardgrass plant response rating,bamyardgrass; [14],0
same,"Plant response rating, Barnyardgrass",bamyardgrass; [15],0
same,Barnyardgrass plant response rating,bamyardgrass; [16],0
same,"Plant response rating, Barnyardgrass",bamyardgrass; [19],0
same,Barnyardgrass plant response rating,bamyardgrass; [17],0
same,Barnyardgrass plant response rating,bamyardgrass; [20],0
same,Barnyardgrass plant response rating,"bamyardgrass; Rate 2000 g/ha, Pre-emergence (as headed), scale 0 to 10, 0 no effect, 10 complete control",0
